Response vs control in vivo and EC50 data for 14 compounds are collected here from patent US20100041892A1, “Therapeutic agent for diabetes” (priority 2005, published 2010).

The test system of one assay is KKAy mice. Put plainly: Blood glucose and blood lipid (triglyceride) lowering action in mice. In kind it is in vivo. As to conditions: Mus musculus, 4TO7, po, 4 to 7 days; for response vs control in vivo at 0.01 %: 0.01% in powder diet; for response vs control in vivo at 0.03 %: 0.03% in powder diet; for response vs control in vivo at 0.005 %: 0.005% in powder diet. The source says:
The test compound was mixed with a powder diet (CE-2, CLEA JAPAN, INC.) at a proportion of 0.01% (0.03% for the compounds of Examples 1, 2, 12, 81, 94, 96, 129 and 143, and 0.005% for the compounds of Examples 28, 30 and 37) and freely given to KKAy mice (9 to 14-week-old, 5 mice per group) which are obesity non-insulin-dependent diabetes (type-2 diabetes) models, for 4 to 7 days. During this period, water was freely given. The blood was drawn from the orbital venous plexus. Glucose and triglyceride in the plasma separated from the blood were quantitated using L Type Wako Glu2 (Wako Pure Chemical Industries, Ltd.) and L Type Wako TG·H (Wako Pure Chemical Industries, Ltd.), respectively, according to an enzyme method.

A further assay concerns the target T1, PPARγ-RXRα heterodimer (Homo sapiens, UniProt P37231).
T1 construct: expressed in transfected cells; host or cells: CHO-K1 (PPARγ:RXRα:4ERPP/CHO-K1)
T1 sequence (P37231 1-477 isoform P37231-2): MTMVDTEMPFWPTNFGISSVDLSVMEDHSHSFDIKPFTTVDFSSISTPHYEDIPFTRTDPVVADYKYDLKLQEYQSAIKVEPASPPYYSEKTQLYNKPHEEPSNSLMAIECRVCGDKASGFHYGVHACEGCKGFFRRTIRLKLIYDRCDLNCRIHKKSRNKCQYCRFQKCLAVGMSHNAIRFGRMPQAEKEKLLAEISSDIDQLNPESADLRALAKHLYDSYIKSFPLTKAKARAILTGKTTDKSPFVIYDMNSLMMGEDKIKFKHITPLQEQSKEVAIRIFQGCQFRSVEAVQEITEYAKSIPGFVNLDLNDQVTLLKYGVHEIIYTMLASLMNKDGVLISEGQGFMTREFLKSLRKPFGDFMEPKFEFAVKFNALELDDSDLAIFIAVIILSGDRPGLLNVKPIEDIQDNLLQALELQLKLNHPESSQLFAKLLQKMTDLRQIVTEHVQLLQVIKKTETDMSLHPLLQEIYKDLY
T1 sequence (P19793 1-462 partner): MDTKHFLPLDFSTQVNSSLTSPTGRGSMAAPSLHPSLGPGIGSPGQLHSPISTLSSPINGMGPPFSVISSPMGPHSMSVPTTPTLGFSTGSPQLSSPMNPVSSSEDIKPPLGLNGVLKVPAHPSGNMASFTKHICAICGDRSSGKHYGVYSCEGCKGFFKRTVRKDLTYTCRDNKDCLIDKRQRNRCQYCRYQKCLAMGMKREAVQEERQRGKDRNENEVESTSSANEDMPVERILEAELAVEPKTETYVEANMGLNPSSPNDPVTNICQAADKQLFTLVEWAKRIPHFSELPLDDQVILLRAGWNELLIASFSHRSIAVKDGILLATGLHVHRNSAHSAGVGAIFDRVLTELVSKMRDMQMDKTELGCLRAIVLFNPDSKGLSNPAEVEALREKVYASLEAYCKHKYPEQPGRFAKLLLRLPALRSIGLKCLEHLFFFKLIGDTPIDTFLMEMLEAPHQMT
Put plainly: PPARγ-RXRα heterodimer ligand activity (luciferase reporter, PPARγ:RXRα:4ERPP/CHO-K1 cells). As to conditions: concentration showing 50% of the maximum luciferase induction rate; CHO-K1 reporter cells, one day incubation. In kind it is cell-based. Here is the method:
The PPARγ:RXRα:4ERPP/CHO-K1 cells described in WO03/099793 were cultured in a Ham F12 medium [manufactured by Life Technologies, Inc., US] containing 10% calf fetal serum [manufactured by Life Technologies, Inc., US], sown in a 96-well white plate (manufactured by Corning Coster Corporation, US] at 1×10^4 cells/well, and incubated overnight in a carbon dioxide gas incubator at 37° C.
Then, the medium was removed from the 96 well white plate, 45 μl of Ham F12-medium containing 0.1% fatty acid-free bovine serum albumin (BSA) and a test compound (5 μl) were added, and the cells were incubated for one day in a carbon dioxide gas incubator at 37° C. The medium was removed, 20 μl of PicaGene 7.5 (manufactured by Wako Pure Chemical Industries, Ltd.) 2-fold diluted with HBSS (HANKS' BALANCED SALT SOLUTION) [manufactured by BIO WHITTAKER, US] was added. After stirring, the luciferase activity was determined using the 1420 ARVO Multilabel Counter [manufactured by PerkinElmer, US].
The induction rate was calculated from the luciferase activity of each test compound based on the luciferase activity of the test compound non-administration group as 1. The test compound concentration and the induction rate were analyzed by PRISM [manufactured by GraphPad Software, Inc., US] to calculate EC50 value (compound concentration showing 50% of the maximum value of induction rate) of the test compound.
A general note: Reporter assays use an easily measured gene product as a stand-in for the process of interest.

The mark [1] stands for this setting: plasma glucose relative to non-administration group = 100%, read-out: hypoglycemic action (%).
[2] abbreviates: plasma triglyceride relative to non-administration group = 100%, read-out: hypolipidemic action (%).

SMILES strings stand for the structures. Where two headings read alike, the source gives them in different places.

Usually EC50 stands for the concentration at which the effect is half-maximal. Higher therefore signals a less potent agent. As to `CCCCCS(=O)(=O)NC(=O)OCc1ccc(OCCOC)cc1Oc1ncc(C(F)(F)F)cc1Cl` [Example 58, 2-{[3-chloro-5-(trifluoromethyl)pyridin-2-yl]oxy}-4-(2-methoxyethoxy)benzyl (pentylsulfonyl)carbamate], the response vs control in vivo at 0.01 % is 64% with KKAy mice (setting [1]) and 73% in the assay on KKAy mice (setting [2]). The same compound showed an EC50 at PPARγ-RXRα heterodimer of 10 nM.
As to `CCCCCS(=O)(=O)NC(=O)CCc1ccc(OCCOC)cc1Oc1ncc(C(F)(F)F)cc1Cl` [Example 1, 3-[2-{[3-chloro-5-(trifluoromethyl)pyridin-2-yl]oxy}-4-(2-methoxyethoxy)phenyl]-N-(pentylsulfonyl)propanamide], the values for the response vs control in vivo at 0.03 % in the assay with KKAy mice (setting [1]) and with KKAy mice (setting [2]) were 47% and 53%, respectively. At PPARγ-RXRα heterodimer, the EC50 came to 1.5 nM.
Consider `CCCCCS(=O)(=O)NC(=O)/C(C)=C/c1ccc(OCCOC)cc1Oc1ncc(C(F)(F)F)cc1Cl` [Example 211, (2E)-3-[2-{[3-chloro-5-(trifluoromethyl)pyridin-2-yl]oxy}-4-(2-methoxyethoxy)phenyl]-2-methyl-N-(pentylsulfonyl)acrylamide], for which the values for the response vs control in vivo at 0.01 % with KKAy mice (setting [1]) and in the assay with KKAy mice (setting [2]) were 49% and 46%, respectively. On PPARγ-RXRα heterodimer, the EC50 worked out at 5.2 nM.
For `CCCCCS(=O)(=O)NC(=O)CCc1ccc(OC(C)C)cc1Oc1ncc(C(F)(F)F)cc1Cl` [Example 2, 3-(2-{[3-chloro-5-(trifluoromethyl)pyridin-2-yl]oxy}-4-isopropoxyphenyl)-N-(pentylsulfonyl)propanamide], the response vs control in vivo at 0.03 % came to 50% with KKAy mice (setting [1]) and 41% with KKAy mice (setting [2]). In addition, a half-maximal effect at PPARγ-RXRα heterodimer (EC50) was put at 2.6 nM.
On to `CC(C)CCS(=O)(=O)NC(=O)/C=C/c1cc(OC(C)C)nn1Cc1ccc(C(F)(F)F)cc1Cl` [Example 112, (2E)-3-{1-[2-chloro-4-(trifluoromethyl)benzyl]-3-isopropoxy-1H-pyrazol-5-yl}-N-[(3-methylbutyl)sulfonyl]acrylamide], for which the results for the response vs control in vivo at 0.01 % in the assay on KKAy mice (setting [1]) and in the assay with KKAy mice (setting [2]) were 53% and 70%, respectively. In addition, the EC50 at PPARγ-RXRα heterodimer was determined as 8.3 nM.
As for `COCCOc1ccc(/C=C/COC(=O)NS(=O)(=O)c2ccc(Cl)cc2)c(Oc2ncc(C(F)(F)F)cc2Cl)c1` [Example 37, (2E)-3-[2-{[3-chloro-5-(trifluoromethyl)pyridin-2-yl]oxy}-4-(2-methoxyethoxy)phenyl]-2-propen-1-yl [(4-chlorophenyl)sulfonyl]carbamate dihydrate], the response vs control in vivo at 0.005 % with KKAy mice (setting [1]) came out at 68%; in the assay with KKAy mice (setting [2]), 70%. The compound further returned an EC50 at PPARγ-RXRα heterodimer of 21 nM.
Regarding `CCCCCNS(=O)(=O)NC(=O)CCc1ccc(OCCOC)cc1Oc1ncc(C(F)(F)F)cc1Cl` [Example 214, 3-[2-{[3-chloro-5-(trifluoromethyl)pyridin-2-yl]oxy}-4-(2-methoxyethoxy)phenyl]-N-[(pentylamino)sulfonyl]propanamide], the response vs control in vivo at 0.01 % in the assay with KKAy mice (setting [1]) turned out to be 56%; in the assay on KKAy mice (setting [2]), 65%. This compound had an EC50 at PPARγ-RXRα heterodimer of 1.1 nM.
Turning to `CCCCCS(=O)(=O)NC(=O)CCc1cc(C(C)C)nn1Cc1ccc(C(F)(F)F)cc1Cl` [Example 96, 3-(1-[2-chloro-4-(trifluoromethyl)benzyl]-3-isopropyl-1H-pyrazol-5-yl)-N-(pentylsulfonyl)propanamide], the response vs control in vivo at 0.03 % with KKAy mice (setting [1]) came to 53%; in the assay on KKAy mice (setting [2]), 57%. This compound also returned an EC50 at PPARγ-RXRα heterodimer of 8.4 nM.
Turning to `CCCCCS(=O)(=O)NC(=O)C(Cc1ccc(OCCOC)cc1Oc1ncc(C(F)(F)F)cc1Cl)OC` (stereo not drawn) [Example 210, 3-[2-{[3-chloro-5-(trifluoromethyl)pyridin-2-yl]oxy}-4-(2-methoxyethoxy)phenyl]-2-methoxy-N-(pentylsulfonyl)propanamide], the response vs control in vivo at 0.01 % in the assay on KKAy mice (setting [1]) came out at 58%; with KKAy mice (setting [2]), 69%. Also, the EC50 at PPARγ-RXRα heterodimer turned out to be 6.7 nM.
The matching figures for `CCCCCS(=O)(=O)NC(=O)/C=C/c1ccc(OCC(C)(C)O)cc1Oc1ncc(C(F)(F)F)cc1Cl` [Example 250, (2E)-3-[2-{[3-chloro-5-(trifluoromethyl)pyridin-2-yl]oxy}-4-(2-hydroxy-2-methylpropoxy)phenyl]-N-(pentylsulfonyl)acrylamide]: 78%, 121% and 7.2 nM.
As for `CCCCCS(=O)(=O)NC(=O)/C=C/c1ccc(OCCOC2CC2)cc1Oc1ncc(C(F)(F)F)cc1Cl` [Example 424, (2E)-3-{2-{[3-chloro-5-(trifluoromethyl)pyridin-2-yl]oxy}-4-[2-(cyclopropyloxy)ethoxy]phenyl}-N-(pentylsulfonyl)acrylamide], the response vs control in vivo at 0.01 % was 70% in the assay on KKAy mice (setting [1]) and 18% in the assay on KKAy mice (setting [2]). In addition, the EC50 on PPARγ-RXRα heterodimer stood at 6.2 nM.
On to `CCCCCS(=O)(=O)NC(=O)/C=C/c1ccc(OCCO)cc1Oc1ncc(C(F)(F)F)cc1Cl` [Example 218, (2E)-3-[2-{[3-chloro-5-(trifluoromethyl)pyridin-2-yl]oxy}-4-(2-hydroxyethoxy)phenyl]-N-(pentylsulfonyl)acrylamide monohydrate], for which the values for the response vs control in vivo at 0.01 % with KKAy mice (setting [1]) and in the assay on KKAy mice (setting [2]) were 81% and 129%, respectively. At PPARγ-RXRα heterodimer, this compound registered an EC50 of 80 nM.
As to `COCCOc1ccc(CCCOC(=O)NS(=O)(=O)c2ccc(C)cc2)c(Oc2ncc(C(F)(F)F)cc2Cl)c1` [Example 30, 3-[2-{[3-chloro-5-(trifluoromethyl)pyridin-2-yl]oxy}-4-(2-methoxyethoxy)phenyl]propyl [(4-methylphenyl)sulfonyl]carbamate monohydrate], the response vs control in vivo at 0.005 % in the assay on KKAy mice (setting [1]) is 47%; in the assay with KKAy mice (setting [2]) it was 57%. The compound further yielded an EC50 on PPARγ-RXRα heterodimer of 3.8 nM.
As to `CCCCCS(=O)(=O)NC(=O)/C=C/c1cc(C2CC2)nn1Cc1ccc(C(F)(F)F)cc1Cl` [Example 155, (2E)-3-{1-[2-chloro-4-(trifluoromethyl)benzyl]-3-cyclopropyl-1H-pyrazol-5-yl}-N-(pentylsulfonyl)acrylamide], the response vs control in vivo at 0.01 % in the assay on KKAy mice (setting [1]) and in the assay on KKAy mice (setting [2]) was 70% each time. On PPARγ-RXRα heterodimer, this compound showed an EC50 of 12 nM.
